Results: paper PMC3187749, “Discovery of Diverse Small Molecule Chemotypes with Cell-Based PKD1 Inhibitory Activity” (PLoS ONE, 2011)

Legend:
[1] = target: T1, recombinant human PKD1 (Homo sapiens, UniProt Q15139); assay: In vitro radiometric PKD1 kinase assay; assay type: biochemical; details: radiometric PKD1 kinase assay; mean ± range or SD of 2–4 independent experiments; read-out: In vitro PKD1 IC50
T1 construct: His; purchased Millipore (Billerica, MA)
T1 sequence (Q15139 1-912): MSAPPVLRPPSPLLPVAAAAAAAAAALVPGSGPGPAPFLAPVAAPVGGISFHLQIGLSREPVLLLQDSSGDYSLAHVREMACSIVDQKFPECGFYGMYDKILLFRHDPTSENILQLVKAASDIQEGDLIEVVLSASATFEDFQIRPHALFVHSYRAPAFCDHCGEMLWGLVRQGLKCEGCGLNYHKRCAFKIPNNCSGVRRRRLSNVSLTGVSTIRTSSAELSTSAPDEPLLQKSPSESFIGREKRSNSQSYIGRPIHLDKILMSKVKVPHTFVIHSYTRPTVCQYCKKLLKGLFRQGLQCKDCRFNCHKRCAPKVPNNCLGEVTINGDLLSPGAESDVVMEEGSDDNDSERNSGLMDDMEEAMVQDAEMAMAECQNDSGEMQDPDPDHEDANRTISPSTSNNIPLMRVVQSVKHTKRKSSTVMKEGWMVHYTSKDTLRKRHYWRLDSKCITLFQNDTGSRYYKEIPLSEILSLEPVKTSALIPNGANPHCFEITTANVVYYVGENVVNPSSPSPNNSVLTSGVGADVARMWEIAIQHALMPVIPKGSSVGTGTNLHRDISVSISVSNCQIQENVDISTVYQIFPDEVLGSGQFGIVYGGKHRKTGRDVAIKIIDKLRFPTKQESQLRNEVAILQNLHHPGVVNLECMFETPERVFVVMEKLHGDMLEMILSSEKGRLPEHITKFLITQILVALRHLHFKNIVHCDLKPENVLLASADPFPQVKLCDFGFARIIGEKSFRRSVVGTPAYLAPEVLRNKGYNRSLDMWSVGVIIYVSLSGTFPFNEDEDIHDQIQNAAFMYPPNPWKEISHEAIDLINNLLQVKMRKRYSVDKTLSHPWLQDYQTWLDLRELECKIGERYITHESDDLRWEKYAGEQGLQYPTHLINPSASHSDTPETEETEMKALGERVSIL
Experimental: (§1) Kinase reactions were initiated with the addition of ATP (50 µM ATP, 1.0 µCi γ-^33P-ATP; Perkin Elmer, Boston, MA) and incubated for 20 min at 30°C. Twenty-five µL of the reaction was spotted onto Whatman P81 filter paper (Whatman Inc., Clifton, NJ). Filter papers were then washed three times in 0.5% phosphoric acid, air-dried, and counted using an LS6500 multi-purpose scintillation counter (Beckman Coulter, Fullerton, CA). IC50 determinations were performed using GraphPad Prism software 5.0. Radiometric PKD2 and PKD3 in vitro kinase assays were performed as previously described.

[2] = target: T2, PKD3 (Homo sapiens, UniProt O94806); assay: Radiometric PKD3 in vitro kinase assay; assay type: biochemical; details: preliminary in vitro data
T2 sequence (O94806 1-890): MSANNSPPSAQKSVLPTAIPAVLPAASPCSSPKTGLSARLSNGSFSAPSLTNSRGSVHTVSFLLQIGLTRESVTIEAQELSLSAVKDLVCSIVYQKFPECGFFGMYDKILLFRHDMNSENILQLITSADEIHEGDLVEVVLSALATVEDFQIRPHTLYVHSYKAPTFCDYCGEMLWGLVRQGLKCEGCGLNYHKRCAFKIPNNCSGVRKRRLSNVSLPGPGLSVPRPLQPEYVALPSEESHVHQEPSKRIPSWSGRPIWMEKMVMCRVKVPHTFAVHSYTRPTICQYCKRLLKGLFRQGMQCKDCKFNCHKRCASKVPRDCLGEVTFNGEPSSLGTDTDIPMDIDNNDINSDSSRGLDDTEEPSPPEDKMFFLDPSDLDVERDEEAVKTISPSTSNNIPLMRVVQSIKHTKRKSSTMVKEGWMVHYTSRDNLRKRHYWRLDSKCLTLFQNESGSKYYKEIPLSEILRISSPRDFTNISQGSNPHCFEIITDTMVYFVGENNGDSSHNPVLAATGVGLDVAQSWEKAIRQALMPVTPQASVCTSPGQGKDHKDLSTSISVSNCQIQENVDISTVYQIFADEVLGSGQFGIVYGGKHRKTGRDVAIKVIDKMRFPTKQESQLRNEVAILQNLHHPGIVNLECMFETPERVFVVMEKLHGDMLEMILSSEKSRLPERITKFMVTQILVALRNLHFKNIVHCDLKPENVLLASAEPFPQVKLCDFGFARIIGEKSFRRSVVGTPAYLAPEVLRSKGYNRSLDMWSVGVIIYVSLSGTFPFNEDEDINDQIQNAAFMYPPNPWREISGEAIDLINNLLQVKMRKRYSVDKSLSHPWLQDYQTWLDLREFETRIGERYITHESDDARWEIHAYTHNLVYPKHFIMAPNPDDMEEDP
Experimental: as §1

[3] = target: T3, endogenous PKD1 (Ser916 phosphorylation) in LNCaP prostate cancer cells (Homo sapiens, UniProt Q15139); assay: Western blot of PMA-induced phospho-Ser916-PKD1 in LNCaP cells; assay type: cell-based
T3 construct: phosphorylation of endogenously expressed PKD1 Ser^916; endogenous in cells; host or cells: LNCaP prostate cancer cells
T3 sequence (Q15139 1-912): T1 sequence (Q15139 1-912)
Experimental: Briefly, prostate cancer cells (LNCaP) were exposed to test compounds. Cells were lysed in buffer (200 mM Tris-HCl, pH 7.4, 100 µM 4-(2-aminoethyl) benzenesulfonyl fluoride, 1 mM EGTA, and 1% Triton X-100) and cell lysates were subjected to SDS-PAGE then electrotransferred to nitrocellulose membranes. Membranes were blocked with 5% nonfat milk in Tris-buffered saline. Membranes were probed with a primary antibody then followed by a secondary anti-mouse or anti-rabbit secondary antibody conjugated to horseradish peroxidase (1∶1000, Bio-Rad). Bands were visualized by the enhanced chemiluminescence Western blotting detection system (Amersham Biosciences). The primary antibodies included p-S916-PKD1 antibody (Millipore) and GAPDH (Enzo Life Sciences, Plymouth Meeting, PA).
[…] Whole cell lysates were immunoblotted for phosphorylated Ser^916-PKD1 with GAPDH serving as a loading control.

[4] = test system: AKT; assay: IMAP-based AKT counter screen; assay type: biochemical; details: concentrations up to 50 µM
From the text: (§2) It was also gratifying that, in general, our novel cell active PKD1 inhibitors appeared to be less promiscuous than PKD1 inhibitors having minimal to no cellular PKD1 inhibitory activity (Table 1). For example, CIDs 755673 and 1893668 display additional confirmed activity in six and seven, respectively, PubChem bioassays while CID 2011756 has confirmed activity in only one additional PubChem bioassay. […] In contrast, the remaining chemotypes registered as confirmed actives in 2–43 additional bioassays (Table 1). Additional chemical similarity searching, focusing on our four novel cell-active PKD1 inhibitory chemotypes, using MetaDrug also supports a comparative lack of promiscuity of these compounds.

[5] = test system: PLK1; assay: IMAP-based PLK1 counter screen; assay type: biochemical; details: concentrations up to 50 µM
From the text: as §2

Compound: O=C(Nc1ccc(CN2CCOCC2)cc1)c1ccc(-c2cccc(Cl)c2)o1 [CID 2011756, 5-(3-chlorophenyl)-N-[4-(morpholin-4-ylmethyl)phenyl]furan-2-carboxamide]
- IC50 [1]: 3.2 ± 0.1 µM
- IC50 [2]: 0.7 ± 0.2 µM
- EC50 ([3]; LNCaP cells, PMA stimulation, n = 3, read-out: Cellular EC50 (phospho-Ser916-PKD1)): 10 ± 0.7 µM
- Concentration dependence of inhibition of PMA-induced endogenous PKD1 activity ([3]; LNCaP cells, Western blot): concentration-dependent inhibition
- inhibition at 50 µM ([3]; LNCaP, read-out: Inhibition of phosphorylation of Ser916-PKD1): > 50%
- AKT kinase inhibition [4]: no kinase inhibition
- PLK1 kinase inhibition [5]: no kinase inhibition
